Data reported in paper PMC4552634, “A New Set of Chemical Starting Points with Plasmodium falciparum Transmission-Blocking Potential for Antimalarial Drug Discovery” (PLoS ONE, 2015).
Values joined by “and” are separate entries in the source; they are usually repeats but may differ in a detail not shown here. Identical values can stand only once. Like-named read-outs stand apart in the source and are kept apart here.

Tests used:
[1] = system: P. falciparum stage V gametocytes; experiment: Gametocytocidal ATP bioluminescence assay (single point 5 μM and 1 μM, dose-response); assay type: cell-based, Plasmodium falciparum; conditions: for Ratio IC50 HepG2/IC50 P. falciparum: IC50 HepG2 divided by IC50 P. falciparum gametocytes
Protocol: Purified stage IV-V gametocytes were obtained as previously described [10]. Single point ATP bioluminescence assay and dose–response of positive hits was determined in accordance with the previously published protocol [10].

[2] = system: HepG2 cells; experiment: Cytotoxicity in HepG2 cells (intracellular ATP, ATPlite, 48 h); assay type: cell-based, human; conditions: HepG2 cells; IC50 per ratio column head; unit inferred
Protocol: Cells were grown and maintained in EMEM (Sigma-Aldrich) supplemented with 2mM L-glutamine (Sigma-Aldrich) and 10% fetal calf serum (Perbio). […] Passages were routinely made upon reaching 80–90% confluence. For cytotoxicity experiments, cells were seeded onto 96-well clear bottom black plates coated with type I collagen (Biocoat, Becton Dickinson) at a cell density of 20,000 cells/well.
To determine cytotoxic effects, represented by the Tox50 value (the concentration of drug that reduces cell viability by 50%), cells were exposed to serial dilutions of compounds for 48 h at 37°C. The assay medium was as previously described, but supplemented with 5% fetal calf serum instead of 10%. […] In the presence of ATP, luminescence is emitted as the reaction described earlier for the BacTiter-Glo kit. Percentages of inhibition were calculated relative to vehicle control wells.

[3] = system: P. falciparum asexual stages; conditions: asexual stages; TCAMS data; read-out: IC50 asexual; cited from earlier work
[4] = P. falciparum gametocytes, average, read-out: IC50 Pf Gametocytes average, IC50 (µM) average
[5] = sexual stages (gametocytes), dose-response, read-out: IC50 sexual

Structure (SMILES) | Ratio IC50 HepG2/IC50 P. falciparum [1] | IC50 [1, 4] | IC50 [1, 5] [µM] | IC50 [2] | IC50 [3] [nM]
CCOc1ccccc1CCNC(C)Cc1ccc(C(=O)Nc2ccc(CC(C)NCCc3cccc(Cl)c3)cc2)cc1 (centres unmarked) [TCMDC-139805] | 5.71 | 0.61 µM | 0.613 | 3.5 µM | 539
CCc1c(CCNCCCCCCNC(C)(C)Cc2ccc3c(c2CC)OCO3)ccc(OC)c1OC [TCMDC-132055] | 16 | 0.27 µM | 0.266 | 4.37 µM | 934
Clc1ccc(OCCC2CCN(CCCCCCCN3CCC(CCOc4ccc(Cl)c(Cl)c4)CC3)CC2)cc1Cl [TCMDC-138967] | 6 and 5.59 | 0.7 µM and 0.47 µM | – | 4.4 µM and 2.6 µM | 624
CCN(CC)CCOc1ccc(C(O)(C#CC(O)(c2ccc(OCCN(CC)CC)cc2)c2ccc([N+](=O)[O-])cc2)c2ccc([N+](=O)[O-])cc2)cc1 (centres unmarked) [TCMDC-137201] | 28 | 0.22 µM | 0.224 | 6.2 µM | 1730
FC(F)(F)COc1ccc2ccccc2c1CCNCCCCNCCc1c(OCC(F)(F)F)ccc2ccccc12 [TCMDC-137317] | 2.41 | 1.37 µM | – | 3.3 µM | 426
COc1ccc2ccccc2c1CNCCCCCCNCc1c(OC)ccc2ccccc12 [TCMDC-137915] | 14 | 0.25 µM | 0.253 | 3.59 µM | 712
Cc1oc(-c2ccc(Cl)cc2)cc1C(=O)NCCC1CCN(CCCCCNC(=O)/C=C/c2ccc(Cl)c(Cl)c2)CC1 [TCMDC-140009] | 0.755 | 5.43 µM | – | 4.1 µM | 446
COc1c(C2CCN(CCN3CCC(CNC(=O)c4ccc(-c5ccc(C#N)cc5)cc4)CC3)CC2)ccc2c1CCCC2 [TCMDC-138859] | 2.83 | 1.17 µM | 1.17 | 3.3 µM | 455
CCc1c(CCNCCCC(C)CCNCCc2ccc(OC)c(OC)c2CC)ccc(OC)c1OC (centres unmarked) [TCMDC-132065] | 13 | 0.45 µM | 0.453 | 6 µM | 1110
O=C(/C=C/c1ccc(Cl)c(Cl)c1)NCCCCCN1CCCC(CNS(=O)(=O)c2cccc(C(F)(F)F)c2)C1 (centres unmarked) [TCMDC-139597] | 0.4 | 8.63 µM | – | 3.8 µM | 950
CCCCOc1c(CCNCCCCNCCc2cc(OC)c3ccccc3c2OCCCC)cc(OC)c2ccccc12 [TCMDC-137848] | 39 | 0.08 µM | – | 3.1 µM | 925
ON=C1CCc2cc(-c3cc(-c4ccc(OC5CCNCC5)cc4)oc3-c3ccncc3)ccc21 [TCMDC-141381] | 28 | 0.27 µM | – | 7.5 µM | 157
CC(Cc1ccc(COc2ccc(CC(CO)NCCc3cccc(Cl)c3)cc2)cc1)NCCc1cccc(Cl)c1 (centres unmarked) [TCMDC-139844] | 2.53 | 1.39 µM | 1.39 | 3.5 µM | 821
CN(C)CCN(Cc1ccccc1-c1ccc(CNCCc2ccccc2)cc1)C(=O)NC1CCCCC1 [TCMDC-140626] | 18 | 0.35 µM | – | 6.4 µM | 906
COc1ccc2cc(CNCCCCCCNCc3ccc4cc(OC)ccc4c3)ccc2c1 [TCMDC-137797] | 4.48 | 0.67 µM | – | 3 µM | 624
CC(C)Oc1ccc2ccccc2c1CNCCCCCCNCc1c(OC(C)C)ccc2ccccc12 [TCMDC-137965] | 17 | 0.14 µM | – | 2.38 µM | 612
FC(F)(F)COc1c(CCNCCCCNCCc2ccc3ccccc3c2OCC(F)(F)F)ccc2ccccc12 [TCMDC-137169] | 28 | 0.1 µM | – | 2.8 µM | 348
CN1CCN(c2nsc3ccc(-c4ccc(NC(=O)Nc5cc(C(F)(F)F)ccc5F)cc4)cc23)CC1 [TCMDC-133435] | 0.851 | 7.52 µM | – | 6.4 µM | 245
Nc1c(Cl)cc(C(O)CNCCCCCOCCCc2ccc(O)c3ncccc23)cc1Cl.O=C(O)/C=C/C(=O)O (centres unmarked) [TCMDC-132088] | 10 | 0.45 µM | 0.455 | 4.51 µM | 992
CN(C)CCN(C)Cc1cccc(-c2ccc3c(Nc4ccc(F)cc4Cl)ccnc3c2)c1 [TCMDC-138416] | 7.5 | 0.48 µM | – | 3.6 µM | 110
CN1CCC(N(Cc2ccc(-c3ccc(Cl)cc3)cc2)C(=O)Cn2c(CCc3cccc(F)c3F)cc(=O)c3ccccc32)CC1 [TCMDC-141357] | 2 | 3.43 µM | 3.43 | 6.7 µM | 865
O=C(CC1CCCC1)N(Cc1ccc(-c2ccc(CNC3Cc4ccccc4C3)cc2)cc1)CC1CCCCN1 (centres unmarked) [TCMDC-141446] | 6.45 | 1 µM | 1 | 6.47 µM | 1060

Structure (SMILES) | Ratio IC50 HepG2/IC50 P. falciparum [1] | IC50 [1, 4] | IC50 [1, 5] [µM] | IC50 [2] | IC50 [3] [nM]
Fc1ccc(N(c2nc(-c3cc(F)cc(C(F)(F)F)c3)cs2)C2CCNCC2)cc1 [TCMDC-136656] | 2 | 3.28 µM | 3.27 | 6.6 µM | 956
C[C@H](Cc1ccc(Oc2ccc(C[C@@H](C)NC[C@H](O)c3cccc(Cl)c3)cc2)cc1)NC[C@H](O)c1cccc(Cl)c1 [TCMDC-131560] | 7 | 0.27 µM | – | 1.91 µM | 560
CCCCCCN=C(N)c1ccc(OCCCCCOc2ccc(C(N)=NCCCCCC)cc2)cc1 [TCMDC-137619] | 17 | 0.31 µM | 0.309 | 5.39 µM | 309
CCC(CSC1CCCCC1)N(C)CCN(C)C(CC)CSC1CCCCC1 (centres unmarked) [TCMDC-131456] | 0.621 | 1.4 µM | – | 0.87 µM | 314
NCCCOc1cnc(-c2ccccc2)c2nc(-c3nonc3N)n(CCc3ccccc3)c12 [TCMDC-136216] | 4 | 1.4 µM | – | 5.61 µM | 1270
CC(=O)c1ccc2nc[nH]c(=O)c2c1 [TCMDC-138172] | <3.9 | 0.4 µM | – | < 1.56 µM | 722
CCNCc1cccc(-c2ccc3ccnc(N)c3c2)c1 [TCMDC-136869] | 7.56 | 1.66 µM | – | 12.5 µM | 47
CC1(C)CC(NCCCCCCCOc2ccc(OCc3ccccc3)cc2)CC(C)(C)N1 [TCMDC-138958] | 4.41 | 0.68 µM | – | 3 µM | 827
CCc1c(CCNCCc2cccc(CCNCCc3ccc(OC)c(OC)c3CC)c2)ccc(OC)c1OC [TCMDC-132056] | 7.47 | 0.55 µM | – | 4.11 µM | 361
COc1ccc2c(c1CNCCCCCCNCc1c(OC)ccc3c1CCCC3)CCCC2 [TCMDC-137817] | 9 | 0.42 µM | – | 3.83 µM | 907
Cc1cc(N[C@@H](Cc2ccccc2)C(=O)NCCc2ccccc2)nc(NCCc2ccccc2)n1 [TCMDC-134776] | <1 | > 10 µM | – | 13.6 µM | 850
CN(C)CCN(Cc1ccccc1-c1ccc(CNCCc2ccccc2)cc1)C(=O)c1ccccc1 [TCMDC-140532] | 10 | 0.78 µM | – | 7.54 µM | 1700
CCN(Cc1ccc(-c2ccc(C(F)(F)F)cc2)cc1)C(=O)Cn1c(SCc2cccc(F)c2F)cc(=O)c2cc(CN3CCCCC3)ccc21 [TCMDC-141592] | 1.8 | 2.34 µM | 2.33 | 4.2 µM | 801
CC(C)COc1ccc2ccccc2c1CNCCCCCCNCc1c(OCC(C)C)ccc2ccccc12 [TCMDC-137972] | 18 | 0.1 µM | 0.103 | 1.88 µM | 695
C#CCOc1ccc2ccccc2c1CNCCCCCCNCc1c(OCC#C)ccc2ccccc12 [TCMDC-137838] | 6.38 | 0.5 µM | – | 3.19 µM | 780
COc1ccc(CCNCCCCCCNCCc2ccc(Cl)c3ccccc23)cc1OC [TCMDC-131270] | 25 | 0.13 µM | 0.127 | 3.23 µM | 580
CC(Cc1ccc(OCCCCOc2ccccc2)cc1)NCCC1CCCN1C (centres unmarked) [TCMDC-140017] | <16 | 0.095 µM | – | < 1.56 µM | 40
c1ccc2c(CNCCCN3CCN(CCCNCc4c5ccccc5cc5ccccc45)CC3)c3ccccc3cc2c1 [TCMDC-137909] | 60 | 0.11 µM | 0.105 | 6.28 µM | 182
C=CC(C)C1OC(=O)c2cc(OC)cc(OC)c21 (centres unmarked) [TCMDC-138676] | 2 | 0.4 µM | – | 0.8 µM | –
CCCCOc1ccc(CNCCCCCCNCc2ccc(OCCCC)c3ccccc23)c2ccccc12 [TCMDC-137281] | – | – | – | 3.04 µM and 2.8 µM | 1130
CCCCCOc1ccc(C(=NC)N(CCCCC)CCCCC)c2ccccc12 [TCMDC-137703] | 7 | 0.89 µM | 0.885 | 6.3 µM | –
